This passage reports IC50 results from patent US8889704B2 (Array BioPharma Inc., priority 2011, dated 2014).

Format in all cases: biochemical
In test [1] the target is T1, GST-tagged recombinant full-length human Pim-2 (Homo sapiens, UniProt Q9P1W9).
T1 construct: GST-tagged recombinant full-length human Pim-2; GST
The experiment in a line: PIM-2 Assay (as Example A). As to conditions: averaged IC50; 4 μM ATP, 1.0 μM PIM2tide, 1.5 nM Pim-2. Summed up:
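IC50 was derived by 4-parameter logistic fitting of percent-of-control data over a 10-point, 3-fold series (highest 10 μM, 2% DMSO). Reactions held 1.5 nM GST-Pim-2 (full-length, human), 4 μM [γ-33P]ATP and 1.0 μM PIM2tide for 60 min at 22 °C, pH 7.4; 33P-peptide captured on P81 filters.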

The next test concerns the target PIM-1 (Homo sapiens, UniProt P11309). The experiment in a line: Enzyme PIM-1 Assay ([33P]ATP incorporation into PIM2tide, filter plate). The settings on record: averaged IC50; 35 μM ATP, 7.5 μM PIM2tide, 0.25 nM PIM-1, 60 min at 22° C. Summed up: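 Ten-point, 3-fold dilution series (10 μM top, 2% DMSO final) tested for inhibition of 33P transfer from 35 μM ATP to 7.5 μM PIM2tide by 0.25 nM PIM-1. Reaction 60 min, 22 °C, pH 7.4 MOPS/MgCl2 buffer; phosphocellulose capture, scintillation counting, IC50 where fitted POC equals 50.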

The target of another test is recombinant rat PIM-3 (Rattus norvegicus, UniProt O70444). The experiment in a line: PIM-3 Assay (as Example A). As to conditions: averaged IC50; 30 μM ATP, 3.75 μM PIM2tide, 0.5 nM PIM-3. The gist of the method: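 33P incorporation from 30 μM [γ-33P]ATP into 3.75 μM PIM2tide by 0.5 nM rat PIM-3, 60 min at 22 °C in pH 7.4 MOPS buffer, read by P81 filter capture and scintillation counting. Compounds tested in 3-fold dilutions up to 10 μM final, 2% DMSO; percent-of-control data fitted by 4-parameter logistic for IC50.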

One may read the IC50 as the concentration that inhibits the measured activity by half.

Structures are written as SMILES. Structures can show the parent of a compound that is named as a salt. A value given as a limit tells only on which side of the number the result lay.

Chain of PIM-1 (P11309 whole entry, species assumed): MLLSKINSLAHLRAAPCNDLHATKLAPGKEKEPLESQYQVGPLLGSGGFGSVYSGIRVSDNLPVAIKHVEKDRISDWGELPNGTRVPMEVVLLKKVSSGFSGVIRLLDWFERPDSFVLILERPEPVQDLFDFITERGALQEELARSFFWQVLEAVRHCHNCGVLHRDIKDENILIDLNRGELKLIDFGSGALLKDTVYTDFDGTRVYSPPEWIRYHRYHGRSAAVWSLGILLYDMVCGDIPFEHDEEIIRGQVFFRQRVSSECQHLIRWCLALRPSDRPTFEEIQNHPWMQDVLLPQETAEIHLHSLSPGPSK
T1 sequence (Q9P1W9 whole entry): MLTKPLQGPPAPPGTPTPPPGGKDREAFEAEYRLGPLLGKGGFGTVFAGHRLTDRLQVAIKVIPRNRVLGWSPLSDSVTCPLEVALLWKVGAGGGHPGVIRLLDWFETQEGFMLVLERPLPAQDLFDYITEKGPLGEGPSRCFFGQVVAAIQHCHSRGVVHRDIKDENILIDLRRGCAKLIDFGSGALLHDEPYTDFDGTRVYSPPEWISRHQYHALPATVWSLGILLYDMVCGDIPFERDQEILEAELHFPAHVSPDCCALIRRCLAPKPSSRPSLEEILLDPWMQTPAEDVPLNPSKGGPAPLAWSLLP

`CCOc1ccc2ccc(-c3nnc4ccc([C@H](N5CCC6(CCCN6)C5)C(F)(F)F)cn34)nc2c1` (stereo partly drawn) [Example 258, 7-ethoxy-2-(6-((1S)-2,2,2-trifluoro-1-(1,7-diazaspiro[4.4]nonan-7-yl)ethyl)-[1,2,4]triazolo[4,3-a]pyridin-3-yl)quinoline dihydrochloride]: the IC50 was 531 nM in test [1], 2.05 nM on PIM-1 and 1.9 nM at recombinant rat PIM-3.

For the compound `CC(C)N[C@H]1CCN(C(c2ccc3nnc(-c4ccc5cccc(OCC6CC6)c5n4)n3c2)C(F)(F)F)C1` (stereo partly drawn) [Example 32, (3S)-1-(1-(3-(8-(cyclopropylmethoxy)quinolin-2-yl)-[1,2,4]triazolo[4,3-a]pyridin-6-yl)-2,2,2-trifluoroethyl)-N-isopropylpyrrolidin-3-amine dihydrochloride], the IC50 in test [1] amounted to 266 nM; against PIM-1, 0.53 nM; at recombinant rat PIM-3 it was 10 nM.

As for `COc1ccc2ccc(-c3nnc4ccc([C@@H](N5CC[C@H](N)C5)C(F)(F)F)cn34)nc2c1C1CC1` [Example 143, (S)-1-((R)-1-(3-(8-cyclopropyl-7-methoxyquinolin-2-yl)-[1,2,4]triazolo[4,3-a]pyridin-6-yl)-2,2,2-trifluoroethyl)pyrrolidin-3-amine dihydrochloride], the results for the IC50 (in test [1]; against PIM-1; at recombinant rat PIM-3) were 38 nM, 0.09 nM and 0.5 nM, respectively.

Turning to `COC[C@@H](C)Oc1ccc2ccc(-c3nnc4ccc([C@H](N5CC[C@](C)(N)C5)C(F)(F)F)cn34)nc2c1` [Example 315, (S)-3-methyl-1-((S)-2,2,2-trifluoro-1-(3-(7-(((R)-1-methoxypropan-2-yl)oxy)quinolin-2-yl)-[1,2,4]triazolo[4,3-a]pyridin-6-yl)ethyl)pyrrolidin-3-amine], the figures for the IC50 (in test [1]; on PIM-1; at recombinant rat PIM-3) were 25.7 nM, 0.19 nM and 0.4 nM, respectively.

For `CC(C)Oc1cc(F)cc2ccc(-c3nnc4ccc([C@@H](N5C[C@@H](N)[C@H](O)C5)C(F)(F)F)cn34)nc12` [Example 147, (3R,4R)-4-amino-1-((R)-2,2,2-trifluoro-1-(3-(6-fluoro-8-isopropoxyquinolin-2-yl)-[1,2,4]triazolo[4,3-a]pyridin-6-yl)ethyl)pyrrolidin-3-ol dihydrochloride], the IC50 was 36 nM in test [1], 0.11 nM on PIM-1 and 0.3 nM on recombinant rat PIM-3.

In the case of `CC(C)(C)NC(=O)c1ccc2ccc(-c3nnc4ccc([C@@H](N5CC[C@H](N)C5)C(F)(F)F)cn34)nc2c1` [Example 46, 2-(6-((R)-1-((S)-3-aminopyrrolidin-1-yl)-2,2,2-trifluoroethyl)-[1,2,4]triazolo[4,3-a]pyridin-3-yl)-N-tert-butylquinoline-7-carboxamide dihydrochloride], the IC50 came out at 33 nM in test [1], 0.07 nM against PIM-1 and 0.3 nM at recombinant rat PIM-3.

As to `C[C@@]1(N)CCN([C@@H](c2ccc3nnc(-c4ccc5cccc(C6CC6)c5n4)n3c2)C(F)(F)F)C1` [Example 94, (R)-1-((S)-1-(3-(8-cyclopropylquinolin-2-yl)-[1,2,4]triazolo[4,3-a]pyridin-6-yl)-2,2,2-trifluoroethyl)-3-methylpyrrolidin-3-amine dihydrochloride], the IC50 in test [1] was 31 nM; against PIM-1 it was 0.29 nM; at recombinant rat PIM-3, 4.6 nM.

Consider `N[C@H]1CCN([C@H](c2ccc3nnc(-c4ccc5cc(F)cc(O)c5n4)n3c2)C(F)(F)F)C1` [Example 163, 2-(6-((R)-1-((S)-3-aminopyrrolidin-1-yl)-2,2,2-trifluoroethyl)-[1,2,4]triazolo[4,3-a]pyridin-3-yl)-6-fluoroquinolin-8-ol hydrochloride], for which the IC50 was greater than 100 nM in test [1], 0.3 nM on PIM-1 and 10 nM at recombinant rat PIM-3.

Take `COCC(C)(C)Oc1cccc2ccc(-c3nnc4ccc([C@@H](N5CC[C@H](N)C5)C(F)(F)F)cn34)nc12` [Example 263, (S)-1-((R)-2,2,2-trifluoro-1-(3-(8-(1-methoxy-2-methylpropan-2-yloxy)quinolin-2-yl)-[1,2,4]triazolo[4,3-a]pyridin-6-yl)ethyl)pyrrolidin-3-amine formate]: the concentration for half-maximal inhibition (IC50) in test [1] was 454 nM; at PIM-1, 0.66 nM; on recombinant rat PIM-3, 3 nM.

Regarding `COC[C@@H](C)Oc1cc2nc(-c3nnc4ccc([C@@H](N5CC[C@H](N)C5)C(F)(F)F)cn34)ccc2cc1F` [Example 160, (S)-1-((R)-2,2,2-trifluoro-1-(3-(6-fluoro-7-((R)-1-methoxypropan-2-yloxy)quinolin-2-yl)-[1,2,4]triazolo[4,3-a]pyridin-6-yl)ethyl)pyrrolidin-3-amine dihydrochloride], the IC50 in test [1] is 46 nM; against PIM-1, 0.16 nM; on recombinant rat PIM-3 it was 0.4 nM.

`N[C@H]1CCN([C@H](c2ccc3nnc(-c4ccc5ccc(O[C@H]6CCC[C@@H]6O)cc5n4)n3c2)C(F)(F)F)C1` (single isomer, unassigned; diastereomer 1) [Example 319, di-hydrochloride]: the IC50 in test [1] came to 112 nM; on PIM-1, 0.11 nM; on recombinant rat PIM-3, 0.3 nM.

As to `N[C@H]1CCN([C@H](c2ccc3nnc(-c4ccc5cc(F)cc(C6(CO)CC6)c5n4)n3c2)C(F)(F)F)C1` [Example 125, (1-(2-(6-((R)-1-((S)-3-aminopyrrolidin-1-yl)-2,2,2-trifluoroethyl)-[1,2,4]triazolo[4,3-a]pyridin-3-yl)-6-fluoroquinolin-8-yl)cyclopropyl)methanol dihydrochloride], the IC50 is 6.2 nM in test [1], 0.11 nM against PIM-1 and 0.4 nM on recombinant rat PIM-3.

In the case of `COCCc1cc2nc(-c3nnc4ccc([C@@H](N5CC[C@H](N)C5)C(F)(F)F)cn34)ccc2cc1F` [Example 153, (S)-1-((R)-2,2,2-trifluoro-1-(3-(6-fluoro-7-(2-methoxyethyl)quinolin-2-yl)-[1,2,4]triazolo[4,3-a]pyridin-6-yl)ethyl)pyrrolidin-3-amine dihydrochloride], the IC50 in test [1] was greater than 100 nM; on PIM-1, 0.19 nM; at recombinant rat PIM-3, 1.6 nM.

`CN(C)C(=O)c1ccc2ccc(-c3nnc4ccc([C@@H](N5CC[C@H](N)C5)C(F)(F)F)cn34)nc2c1` [Example 35, 2-(6-((R)-1-((S)-3-aminopyrrolidin-1-yl)-2,2,2-trifluoroethyl)-[1,2,4]triazolo[4,3-a]pyridin-3-yl)-N,N-dimethylquinoline-7-carboxamide dihydrochloride]: the IC50 is greater than 1000 nM in test [1], 4.52 nM against PIM-1 and 39 nM at recombinant rat PIM-3.

Turning to `COc1ccc2ccc(-c3nnc4ccc([C@@H](N5CC[C@H](N)C5)C(F)(F)F)cn34)nc2c1Cl` [Example 175, (S)-1-((R)-1-(3-(8-chloro-7-methoxyquinolin-2-yl)-[1,2,4]triazolo[4,3-a]pyridin-6-yl)-2,2,2-trifluoroethyl)pyrrolidin-3-amine hydrochloride], the IC50 in test [1] was greater than 100 nM; on PIM-1, 0.7 nM; at recombinant rat PIM-3 it was 1.4 nM.

Regarding `Cn1cc(-c2cc3nc(-c4nnc5ccc([C@@H](N6CC[C@H](N)C6)C(F)(F)F)cn45)ccc3cc2F)cn1` [Example 173, (S)-1-((R)-2,2,2-trifluoro-1-(3-(6-fluoro-7-(1-methyl-1H-pyrazol-4-yl)quinolin-2-yl)-[1,2,4]triazolo[4,3-a]pyridin-6-yl)ethyl)pyrrolidin-3-amine tri-hydrochloride], the half-inhibitory concentration (IC50) in test [1] was greater than 100 nM; on PIM-1 it was 0.13 nM; on recombinant rat PIM-3, 0.4 nM.

`CC(C)Oc1cccc2ccc(-c3nnc4ccc([C@@H](N5CC[C@@](C)(N)C5)C(F)(F)F)cn34)nc12` [Example 91, (R)-3-methyl-1-((R)-2,2,2-trifluoro-1-(3-(8-isopropoxyquinolin-2-yl)-[1,2,4]triazolo[4,3-a]pyridin-6-yl)ethyl)pyrrolidin-3-amine dihydrochloride]: the IC50 was greater than 100 nM in test [1], 0.25 nM on PIM-1 and 2.6 nM at recombinant rat PIM-3.

As to `N[C@H]1CCN([C@H](c2ccc3nnc(-c4ccc5cccc(C(F)(F)F)c5n4)n3c2)C(F)(F)F)C1` [Example 161, (S)-1-((R)-2,2,2-trifluoro-1-(3-(8-(trifluoromethyl)quinolin-2-yl)-[1,2,4]triazolo[4,3-a]pyridin-6-yl)ethyl)pyrrolidin-3-amine dihydrochloride], the IC50 in test [1] is greater than 100 nM; against PIM-1 it was 0.23 nM; on recombinant rat PIM-3, 1.9 nM.

`CCC(C)(C)NC(=O)c1ccc2ccc(-c3nnc4ccc([C@@H](N5CC[C@@H](N)C5)C(F)(F)F)cn34)nc2c1` [Example 59, 2-(6-((R)-1-((R)-3-aminopyrrolidin-1-yl)-2,2,2-trifluoroethyl)-[1,2,4]triazolo[4,3-a]pyridin-3-yl)-N-tert-pentylquinoline-7-carboxamide dihydrochloride]: the values for the IC50 (in test [1]; against PIM-1; at recombinant rat PIM-3) were greater than 100 nM, 0.56 nM and 0.8 nM, respectively.
